Common to all, as to format: biochemical
Test [1] concerns the target T1, S. pombe Lumazine Synthase (Schizosaccharomyces pombe, UniProt Q9UUB1).
T1 sequence (Q9UUB1 1-159): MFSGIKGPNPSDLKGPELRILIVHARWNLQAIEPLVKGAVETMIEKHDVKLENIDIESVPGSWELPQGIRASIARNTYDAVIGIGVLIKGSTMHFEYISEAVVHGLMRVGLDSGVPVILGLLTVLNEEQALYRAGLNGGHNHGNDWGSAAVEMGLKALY
Put plainly: Lumazine synthase kinetic inhibition assay. The following applies: recombinant S. pombe LS; for kcat (rate constant ES → E + P): fit of the compound's data set; for kcat (rate constant ES → E + P) / Kis (inhibitor dissociation constant, ES + I ⇌ ESI): pH 7.0; for Kis (inhibitor dissociation constant, ES + I ⇌ ESI): substrate 1 varied, 2 constant.

The target of test [2] is M. tuberculosis Lumazine Synthase (Mycobacterium tuberculosis, UniProt P9WHE9). The following applies: recombinant M. tuberculosis LS; for kcat (rate constant ES → E + P): fit of the compound's data set; for kcat (rate constant ES → E + P) / Kis (inhibitor dissociation constant, ES + I ⇌ ESI): pH 7.0; for Kis (inhibitor dissociation constant, ES + I ⇌ ESI): substrate 1 varied, 2 constant.
Chain of M. tuberculosis Lumazine Synthase (P9WHE9 whole entry): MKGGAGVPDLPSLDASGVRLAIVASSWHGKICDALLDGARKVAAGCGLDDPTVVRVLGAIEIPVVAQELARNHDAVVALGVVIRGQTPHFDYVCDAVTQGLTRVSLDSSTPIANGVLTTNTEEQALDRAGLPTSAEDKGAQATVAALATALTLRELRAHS

For test [3], the target named is E. coli Riboflavin Synthase (Escherichia coli, UniProt P0AFU8). In words: Riboflavin synthase kinetic inhibition assay. The following applies: recombinant E. coli RS; for kcat (rate constant ES → E + P): fit of the compound's data set; for kcat (rate constant ES → E + P) / Kis (inhibitor dissociation constant, ES + I ⇌ ESI): pH 7.0.
Chain of E. coli Riboflavin Synthase (P0AFU8 whole entry): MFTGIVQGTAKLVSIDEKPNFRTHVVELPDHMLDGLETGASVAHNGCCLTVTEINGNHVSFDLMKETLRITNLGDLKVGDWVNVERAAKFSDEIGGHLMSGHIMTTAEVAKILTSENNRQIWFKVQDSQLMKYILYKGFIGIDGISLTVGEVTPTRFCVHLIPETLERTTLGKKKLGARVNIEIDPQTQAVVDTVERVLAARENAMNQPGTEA

For the molecule `O=c1[nH]c(/C=C/c2ccc(O)cc2)c([N+](=O)[O-])c(=O)[nH]1` [Compound 16, (E)-6-(4-Hydroxystyryl)-5-nitropyrimidine-2,4(1H,3H)-dione], in test [1], the “Inhibitory activity in words” value is “completely ineffective”. For the same molecule, in test [2], the Mode of inhibition entry is on record as “Partial”; the “kcat (rate constant ES → E + P)” value was determined as 0.00717 ± 0.00017 s⁻¹; the “Kis (inhibitor dissociation constant, ES + I ⇌ ESI)” value was 17 ± 5 µM. In addition, the “Inhibitory activity in words” value in test [3] is “completely ineffective”.

On to `COc1cccc(/C=C/c2[nH]c(=O)[nH]c(=O)c2[N+](=O)[O-])c1OC` [Compound 21, (E)-6-(2,3-Dimethoxystyryl)-5-nitropyrimidine-2,4(1H,3H)-dione], for which, in test [1], the Mode of inhibition entry was “Competitive” and the “kcat (rate constant ES → E + P)” value worked out at 0.0368 ± 0.00033 s⁻¹. Also, in test [2], the Mode of inhibition entry is on record as “Mixed”; the “kcat (rate constant ES → E + P)” value was 0.0055 ± 0.00017 s⁻¹; the “Kis (inhibitor dissociation constant, ES + I ⇌ ESI)” value was 22 ± 6 µM.

For `O=c1[nH]c(/C=C/c2ccc3ccccc3c2)c([N+](=O)[O-])c(=O)[nH]1` [Compound 43, (E)-6-(2-(Naphthalene-2-yl)vinyl)-5-nitropyrimidine-2,4(1H,3H)-dione], in test [1], the Mode of inhibition entry is “Mixed”; the “kcat (rate constant ES → E + P)” value stood at 0.043 ± 0.00033 s⁻¹; the “Kis (inhibitor dissociation constant, ES + I ⇌ ESI)” value was determined as 476 ± 89 µM. Besides, in test [2], the Mode of inhibition result is given as “Partial”; the “kcat (rate constant ES → E + P)” value came out at 0.00617 ± 0.00017 s⁻¹; the “Kis (inhibitor dissociation constant, ES + I ⇌ ESI)” value worked out at 72 ± 31 µM. In test [3], the Mode of inhibition entry is given as “Uncompetitive”; the “kcat (rate constant ES → E + P)” value amounted to 0.0553 ± 0.00083 s⁻¹; the “Kis (inhibitor dissociation constant, ES + I ⇌ ESI)” value stood at 270 ± 32 µM.

As for `O=C(O)c1ccc(/C=C/c2[nH]c(=O)[nH]c(=O)c2[N+](=O)[O-])cc1` [Compound 27, (E)-4-(2-(5-Nitro-2,6-dioxo-1,2,3,6-tetrahydropyrimidine-4-yl)vinyl)benzoic Acid], in test [1], the Mode of inhibition result is reported as “Mixed”; the “kcat (rate constant ES → E + P)” value was 0.0232 ± 0.0005 s⁻¹; the “Kis (inhibitor dissociation constant, ES + I ⇌ ESI)” value was 187 ± 43 µM. In test [2], the Mode of inhibition entry is reported as “Partial”; the “kcat (rate constant ES → E + P)” value was 0.00588 ± 6.7e-05 s⁻¹; the “Kis (inhibitor dissociation constant, ES + I ⇌ ESI)” value was 78 ± 38 µM.

For `O=c1[nH]c(/C=C/c2ccc[nH]2)c([N+](=O)[O-])c(=O)[nH]1` [Compound 40, (E)-5-Nitro-6-[2-(1H-pyrrol-2-yl)vinyl]pyrimidine-2,4(1H,3H)-dione], the Mode of inhibition result was “Mixed” in test [1], “Partial” in test [2] and “Mixed” in test [3]. Besides, the “kcat (rate constant ES → E + P)” value in test [1] worked out at 0.0173 ± 0.00017 s⁻¹; in test [2] it was 0.00633 ± 0.00017 s⁻¹; in test [3], 0.06 ± 0.0017 s⁻¹. The “Kis (inhibitor dissociation constant, ES + I ⇌ ESI)” value in test [1] came out at 248 ± 67 µM; in test [2], 42 ± 12 µM; in test [3] it was 806 ± 401 µM.

Turning to `COc1ccc(/C=C/c2[nH]c(=O)[nH]c(=O)c2[N+](=O)[O-])cc1O` [Compound 20, (E)-6-(3-Hydroxy-4-methoxystyryl)-5-nitropyrimidine-2,4(1H,3H)-dione], in test [1], the Mode of inhibition result is “Uncompetitive”; the “kcat (rate constant ES → E + P)” value turned out to be 0.0235 ± 0.00033 s⁻¹; the “Kis (inhibitor dissociation constant, ES + I ⇌ ESI)” value stood at 38 ± 2 µM. In test [2], the Mode of inhibition entry is recorded as “Mixed”; the “kcat (rate constant ES → E + P)” value is 0.00467 ± 0.00017 s⁻¹; the “Kis (inhibitor dissociation constant, ES + I ⇌ ESI)” value was 74 ± 12 µM.

`O=c1[nH]c(/C=C/c2ccc(Br)cc2)c([N+](=O)[O-])c(=O)[nH]1` [Compound 30, (E)-5-Nitro-6-(4-bromostyryl)pyrimidine-2,4(1H,3H)-dione]: in test [1], the Mode of inhibition entry is “Uncompetitive”; the “kcat (rate constant ES → E + P)” value was determined as 0.0205 ± 0.00017 s⁻¹; the “Kis (inhibitor dissociation constant, ES + I ⇌ ESI)” value is 604 ± 54 µM. In addition, in test [2], the Mode of inhibition result is recorded as “Mixed”; the “kcat (rate constant ES → E + P)” value was 0.00567 ± 0.00017 s⁻¹; the “Kis (inhibitor dissociation constant, ES + I ⇌ ESI)” value stood at 234 ± 59 µM.

As for `O=c1[nH]c(/C=C/c2cccc([N+](=O)[O-])c2)c([N+](=O)[O-])c(=O)[nH]1` [Compound 25, (E)-5-Nitro-6-(3-nitrostyryl)pyrimidine-2,4(1H,3H)-dione], in test [1], the Mode of inhibition result is given as “Mixed”; the “kcat (rate constant ES → E + P)” value worked out at 0.019 ± 0.00033 s⁻¹; the “Kis (inhibitor dissociation constant, ES + I ⇌ ESI)” value came to 496 ± 219 µM. In addition, in test [2], the Mode of inhibition result was “Mixed”; the “kcat (rate constant ES → E + P)” value came out at 0.0055 ± 0.00017 s⁻¹; the “Kis (inhibitor dissociation constant, ES + I ⇌ ESI)” value came out at 173 ± 50 µM.

`O=c1[nH]c(/C=C/C2C=Nc3ccccc32)c([N+](=O)[O-])c(=O)[nH]1` (centres unmarked) [Compound 44, (E)-6-(2-(3H-Indol-3-yl)vinyl)-5-nitropyrimidine-2,4(1H,3H)-dione]: the values for the Mode of inhibition result in test [1], in test [2] and in test [3] were “Mixed”, “Mixed” and “Uncompetitive”, respectively. For the same molecule, the results for the “kcat (rate constant ES → E + P)” value in test [1], in test [2] and in test [3] were 0.0327 ± 0.00067 s⁻¹, 0.00667 ± 0.00017 s⁻¹ and 0.0567 ± 0.00067 s⁻¹, respectively. Moreover, the “Kis (inhibitor dissociation constant, ES + I ⇌ ESI)” value was found to be 376 ± 127 µM in test [1], 488 ± 233 µM in test [2] and 426 ± 64 µM in test [3].

With `COc1ccc([N+](=O)[O-])cc1/C=C/c1[nH]c(=O)[nH]c(=O)c1[N+](=O)[O-]` [Compound 34, (E)-6-(2-Methoxy-5-nitrostyryl)-5-nitropyrimidine-2,4(1H,3H)-dione], in test [1], the Mode of inhibition entry is “Mixed”; the “kcat (rate constant ES → E + P)” value is 0.0182 ± 0.00033 s⁻¹; the “Kis (inhibitor dissociation constant, ES + I ⇌ ESI)” value was determined as 682 ± 409 µM. Moreover, in test [2], the Mode of inhibition entry is reported as “Mixed”; the “kcat (rate constant ES → E + P)” value came out at 0.00633 ± 0.00017 s⁻¹; the “Kis (inhibitor dissociation constant, ES + I ⇌ ESI)” value was determined as 225 ± 59 µM.

On to `O=c1[nH]c(C=Cc2ccccc2)c([N+](=O)[O-])c(=O)[nH]1` [Compound 39, 5-Nitro-6-styryluracil], for which, in test [1], the Mode of inhibition entry is “Competitive” and the “kcat (rate constant ES → E + P)” value came out at 0.0367 ± 0.0017 s⁻¹. In test [2], the Mode of inhibition result is listed as “Partial” and the “Kis (inhibitor dissociation constant, ES + I ⇌ ESI)” value came out at 15 ± 4 µM.

As for `O=c1[nH]c(/C=C/c2ccc([N+](=O)[O-])cc2)c([N+](=O)[O-])c(=O)[nH]1` [Compound 26, (E)-5-Nitro-6-(4-nitrostyryl)pyrimidine-2,4(1H,3H)-dione], in test [1], the Mode of inhibition result was “Partial”; the “kcat (rate constant ES → E + P)” value was 0.0217 ± 0.00033 s⁻¹; the “Kis (inhibitor dissociation constant, ES + I ⇌ ESI)” value amounted to 15 ± 5 µM. Besides, in test [2], the Mode of inhibition entry is “Mixed”; the “kcat (rate constant ES → E + P)” value was 0.0075 ± 0.00017 s⁻¹; the “Kis (inhibitor dissociation constant, ES + I ⇌ ESI)” value amounted to 37 ± 17 µM.

On to `O=C(O)c1ccc(/C=C/c2[nH]c(=O)[nH]c(=O)c2[N+](=O)[O-])c(O)c1` [Compound 37, (E)-3-Hydroxy-4-(2-(5-nitro-2,6-dioxo-1,2,3,6-tetrahydropyrimidine-4-yl)vinyl)benzoic Acid], for which, in test [1], the Mode of inhibition result was “Mixed”; the “kcat (rate constant ES → E + P)” value came out at 0.0273 ± 0.00033 s⁻¹; the “Kis (inhibitor dissociation constant, ES + I ⇌ ESI)” value came to 921 ± 640 µM. In addition, in test [2], the Mode of inhibition entry is listed as “Mixed”; the “kcat (rate constant ES → E + P)” value worked out at 0.00667 ± 0.00017 s⁻¹; the “Kis (inhibitor dissociation constant, ES + I ⇌ ESI)” value is 468 ± 113 µM.

As for `O=c1[nH]c(/C=C/c2ccc(O)c([N+](=O)[O-])c2)c([N+](=O)[O-])c(=O)[nH]1` [Compound 36, (E)-6-(4-Hydroxy-3-nitrostyryl)-5-nitropyrimidine-2,4(1H,3H)-dione], in test [1], the Mode of inhibition entry is recorded as “Uncompetitive”; the “kcat (rate constant ES → E + P)” value is 0.022 ± 0.00017 s⁻¹; the “Kis (inhibitor dissociation constant, ES + I ⇌ ESI)” value worked out at 276 ± 16 µM. Also, in test [2], the Mode of inhibition result is reported as “Mixed”; the “kcat (rate constant ES → E + P)” value was determined as 0.00617 ± 0.00017 s⁻¹; the “Kis (inhibitor dissociation constant, ES + I ⇌ ESI)” value came to 461 ± 150 µM.

“5-Amino-(2-hydroxy-2-phenethyl)pyrimidine-2,4-(1H,3H)-dione [Compound 50]”: in test [3], the Mode of inhibition result is “Uncompetitive”; the “kcat (rate constant ES → E + P)” value turned out to be 0.07 ± 0.0017 s⁻¹; the “Kis (inhibitor dissociation constant, ES + I ⇌ ESI)” value came out at 788 ± 148 µM.

As to `COc1ccccc1/C=C/c1[nH]c(=O)[nH]c(=O)c1[N+](=O)[O-]` [Compound 19, (E)-6-(2-Methoxystyryl)-5-nitropyrimidine-2,4(1H,3H)-dione], in test [1], the Mode of inhibition entry was “Mixed”; the “kcat (rate constant ES → E + P)” value came out at 0.0285 ± 0.00017 s⁻¹; the “Kis (inhibitor dissociation constant, ES + I ⇌ ESI)” value was 733 ± 227 µM. Besides, in test [2], the Mode of inhibition result is given as “Partial”; the “kcat (rate constant ES → E + P)” value was determined as 0.00537 ± 6.7e-05 s⁻¹; the “Kis (inhibitor dissociation constant, ES + I ⇌ ESI)” value was found to be 44 ± 10 µM.

On to `COc1cc(/C=C/c2[nH]c(=O)[nH]c(=O)c2[N+](=O)[O-])cc(OC)c1OC` [Compound 24, (E)-6-(3,4,5-Trimethoxystyryl)-5-nitropyrimidine-2,4(1H,3H)-dione], for which, in test [1], the Mode of inhibition entry is listed as “Uncompetitive”; the “kcat (rate constant ES → E + P)” value amounted to 0.0233 ± 0.0005 s⁻¹; the “Kis (inhibitor dissociation constant, ES + I ⇌ ESI)” value amounted to 47 ± 4 µM. In test [2], the Mode of inhibition entry was “Mixed”; the “kcat (rate constant ES → E + P)” value was 0.0045 ± 0.00017 s⁻¹; the “Kis (inhibitor dissociation constant, ES + I ⇌ ESI)” value turned out to be 37 ± 5 µM.

(Values after PMC2760403 (The Journal of organic chemistry, 2009).)
